Source: patent publication US8518946B2, “Salts of (R)-7-[3-amino-4-(2,4,5-trifluorophenyl)butanoyl]-3-trifluoromethyl-5,6,7,8-tetrahydroimidazo[1,5-a] pyrazine-1-carboxylic acid, preparation method and medical use thereof” (Jiangsu Hengrui Medicine Co., Ltd., priority 2009, dated 2013)
Converted amounts (≈) assume the structure as drawn. Where two headings read alike, the source gives them in different places.

Experiments:
[1] = Solubility experiment in four systems; type: physicochemical
Method: According to the conventional solubility measurement, the solubility of the test samples were determined in four different systems: phosphate buffer solution (PBS, pH=7.4), methanol, 0.1% hydrochloric acid and water.

DPP-IX = target: T1, DPP-IX (Homo sapiens, UniProt Q86TI2); experiment: DPP-IX inhibition, Promega DPPIV-Glo Protease Assay; type: biochemical; details: read-out: IC50 DPP9
T1 construct: purchased Bioscience 80090
T1 sequence (Q86TI2 whole entry): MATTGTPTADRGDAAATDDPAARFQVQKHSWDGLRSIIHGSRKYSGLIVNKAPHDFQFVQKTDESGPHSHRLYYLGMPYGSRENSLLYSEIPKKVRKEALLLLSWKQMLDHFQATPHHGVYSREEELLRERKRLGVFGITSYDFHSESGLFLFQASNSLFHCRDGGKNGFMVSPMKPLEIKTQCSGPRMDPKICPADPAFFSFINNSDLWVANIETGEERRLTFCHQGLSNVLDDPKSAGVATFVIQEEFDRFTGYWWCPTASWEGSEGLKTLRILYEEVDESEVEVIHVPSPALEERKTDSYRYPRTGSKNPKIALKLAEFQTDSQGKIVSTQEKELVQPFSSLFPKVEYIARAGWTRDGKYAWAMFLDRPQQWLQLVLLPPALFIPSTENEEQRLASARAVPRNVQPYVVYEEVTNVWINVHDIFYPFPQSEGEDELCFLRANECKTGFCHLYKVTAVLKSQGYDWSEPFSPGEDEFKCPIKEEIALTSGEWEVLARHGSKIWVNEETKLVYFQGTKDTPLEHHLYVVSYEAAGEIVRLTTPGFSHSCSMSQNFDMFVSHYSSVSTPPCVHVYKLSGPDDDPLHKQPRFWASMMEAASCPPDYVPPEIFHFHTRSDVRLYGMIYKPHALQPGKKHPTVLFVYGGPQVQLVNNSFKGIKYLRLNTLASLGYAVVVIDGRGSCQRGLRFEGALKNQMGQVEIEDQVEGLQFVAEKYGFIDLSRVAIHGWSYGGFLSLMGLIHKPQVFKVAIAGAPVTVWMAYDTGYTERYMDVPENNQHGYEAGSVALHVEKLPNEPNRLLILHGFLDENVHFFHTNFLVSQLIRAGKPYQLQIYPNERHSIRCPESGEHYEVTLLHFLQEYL
Method: (§1) The compounds of the present invention were tested to determine their DPP-IV, DPP-VIII, DPP-IX inhibition activity according to the following methods. The half inhibition concentrations IC50 (the concentration of the test compound showing 50% inhibition to the enzyme activity) of each compound were determined by reaction test and calculation of the mixture of fixed amounts of enzyme and substrate with several different concentrations of the test compounds.
(§2) The compounds of the present invention were tested to determine the DPP-IV, DPP-VIII, DPP-IX inhibition activity in the following tests using Promega DPPIV-Glo™ Protease Assay (Cat No. G8350/G8351) Kit, wherein:
c. DPP-IX enzyme bought from Bioscience, Catalog no. 80090.
(§3) The preparation procedure of the conventional reagent such as DPPIV-Glo buffer, luciferin reagents needed in the test and the detail operation of the test can refer to the specifications of the kits. The assay was carried out as following steps:
(§4) The tested compounds were dissolved in DMSO to prepare a series of different concentrations of the test compound solution. DPPIV-Glo buffer and the freezing luciferin detection reagent were equilibrated to room temperature. The luciferin detection reagent was dissolved in moderate buffer in a brown flask to form a solution. Then DPP-IV-Glo. was dissolved in ultrapure water to give the appropriate concentration. The substrate solution and the luciferin detection reagent solution were mixed sufficiently in an appropriate ratio (the ratio of the invention is 1:49), and the mixture was layed at room temperature for 30-60 minutes. Tris buffer (2 mM, pH 8.0), the test compounds and DPP-IV (DPP-VIII or DPP-IX) were mixed and then transferred to a 96-well plate. Each test contains double-well of three-well control. The same volume of DMSO was added to the negative control and blank control. Then the 96-well plate was added with mixed solution of luciferin detection reagent and substrate to initiate the reaction. The 96-wells plate was incubated at room temperature on a plate shaker for 40 minutes after sealed. The strength of the fluorescent signal in each well was determined by microplate reader and the inhibition rate to the enzyme of the compound at this concentration was calculated by the formula as following: inhibitory rate: IR=[1−(S−B)/(N−B)]*100% • S: value of the sample • B: value of the blank control • N: value of the negative control
(§5) IC50 of the test compounds can be calculated by the inhibition rate at different concentration.

[2] = Pharmacokinetics assay in rats (LC/MS/MS plasma concentration); type: in vivo, SD rats; details: for F: intragastric 3.0 mg/kg (as free base), absolute bioavailability from AUC0-t vs vein injection
Text: The compound of Example 3 was administrated intragastrically or tail vein injection to rats and the compounds of Example 1-4, Example 9 and Example 11-12 were administrated intragastrically to determine the drug concentration in plasma at different time points by LC/MS/MS measurement. The pharmacokinetics of the compounds of the present invention was studied and evaluated in rats. And the oral absolute bioavailability was investigated.
Compounds of Example 1-4, Example 9 and Example 11-12.
[…] healthy adult SD rats, male and female in half, were purchased from SINO-BRITSH SIPPR/BK LAB.ANIMAL LTD., CO, License number: SCXK (Shanghai) 2008-0016.
Vein injection group: the proper weighed test compound was dissolved in 0.5 mL of DMSO by ultrasound and then diluted with normal saline to 15 mL to form a 0.3 mg/mL solution.
Intragastrically administered group: the proper weighed test compound was dissolved in 0.5% CMC-Na by ultrasound to form a 0.3 mg/mL of suspension.
32 healthy adult SD rats, male and female in half, were divided into 8 groups so that each group consisted 4 rats. After an overnight fast, the rats were tail vein injected of the compound of Example 3 and intragastrically administered the compound of Example 3 and the salt thereof, at a dose of 3.0 mg/kg (calculated as the free base form) and a volume of 10 mL/kg.
Blood samples (0.2 mL) of the rats in vein injection group were taken from eye socket at pre administration and at 2, 15, 30 minutes and 1.0, 2.0, 4.0, 6.0, 8.0, 12.0, 24.0 hours post administration, which were stored in heparinized tubes and centrifuged for 10 minutes at 3,500 rpm. The plasma samples were stored at −20° C. until analysis. The rats were fed 2 hours after administration.
Blood samples of the rats in intragastrically administered group were taken at pre administration and at 0.5, 1.0, 2.0, 3.0, 4.0, 6.0, 8.0, 12.0, 24.0 hours post administration. The samples were treated with the same method as mentioned above.
50 μL of internal standard solution and 150 μL of methanol were added to 50 μL of rat plasma obtained at various time points after administration. Then the mixture was mixed for 3 minutes using a vortexer and centrifuged for 10 minutes at 13,500 rpm. 10 μL of the supernatant was analyzed by LC/MS/MS.
The compartmental model of pharmacokinetics was fitted for the test compounds and the major pharmacokinetic parameters were calculated by DAS 2.0 software in which Cmax and tmax were the actually measured values. The absolute bioavailability was calculated by AUC0-t taken from post administration and vein injection.

DPP-IV = target: T2, DPP-IV (Homo sapiens, UniProt P27487); experiment: DPP-IV inhibition, Promega DPPIV-Glo Protease Assay; type: biochemical
T2 construct: purchased Calbiochem 317630
T2 sequence (P27487 whole entry): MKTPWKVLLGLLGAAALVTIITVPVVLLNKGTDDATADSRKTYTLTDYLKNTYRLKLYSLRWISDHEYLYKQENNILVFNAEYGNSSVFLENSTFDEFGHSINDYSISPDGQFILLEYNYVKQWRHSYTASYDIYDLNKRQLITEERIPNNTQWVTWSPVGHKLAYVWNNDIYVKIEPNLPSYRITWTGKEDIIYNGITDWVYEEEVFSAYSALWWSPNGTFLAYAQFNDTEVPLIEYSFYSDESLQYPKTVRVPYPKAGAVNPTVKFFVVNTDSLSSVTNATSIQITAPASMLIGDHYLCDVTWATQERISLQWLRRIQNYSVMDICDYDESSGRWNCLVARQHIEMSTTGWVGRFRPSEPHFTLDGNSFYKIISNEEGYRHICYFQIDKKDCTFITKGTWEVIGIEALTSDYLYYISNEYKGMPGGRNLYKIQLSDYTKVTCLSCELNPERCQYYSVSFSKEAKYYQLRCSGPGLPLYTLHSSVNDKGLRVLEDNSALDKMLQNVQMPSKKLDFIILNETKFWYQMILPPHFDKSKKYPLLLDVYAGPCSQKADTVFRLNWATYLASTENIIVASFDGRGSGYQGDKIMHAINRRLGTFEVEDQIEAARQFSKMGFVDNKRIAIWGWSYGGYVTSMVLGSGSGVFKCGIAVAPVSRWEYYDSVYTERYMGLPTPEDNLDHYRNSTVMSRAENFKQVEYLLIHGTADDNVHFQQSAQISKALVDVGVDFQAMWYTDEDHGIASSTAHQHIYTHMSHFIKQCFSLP
Method: as §1, §2
a. DPP-IV enzyme bought from Calbiochem, Catalog no. 317630;
as §3, §4, §5

normal ICR mice = experiment: Hypoglycemic effect, oral glucose tolerance in normal ICR mice; type: in vivo; details: 10 mg/kg by gavage, glucose 4 g/kg 15 minutes after administration, 10 mg/kg
Method: To observe the effects on oral glucose tolerance of the compounds of Example 1-4 and Example 8-12 in normal ICR mice (SINO-BRITSH SIPPR/BK LAB.ANIMAL LTD., CO), the hypoglycemic effects in vivo have been evaluated using blood-glucose meter to measure and analyze the sugar content of the samples at different time points during 2 hours. The samples were taken from the mouse's tail.
The administration dose was 10 mg/kg, and the blank was administered with water. Both groups contained 5% DMSO.
The mice were administered by gavage. 4 g/kg of 10% glucose solution was administered (0.8 mL to each mice) 15 minutes after administration.
The mice were administered according to above dose (the blank group was administrated with 5% DMSO aqueous solution) and the blood sugar value was measured (−15 minutes).
15 minutes after administration, the mice were administered of 4 g/kg of 20% glucose solution and the values of blood sugar were tested by Roche ACCU-CHEK at 0, 15, 30, 45, 60, 120 minutes.

DPP-VIII = target: T3, DPP-VIII (Homo sapiens, UniProt Q6V1X1); experiment: DPP-VIII inhibition, Promega DPPIV-Glo Protease Assay; type: biochemical; details: read-out: IC50 DPP8
T3 construct: purchased Bioscience 80080
T3 sequence (Q6V1X1 whole entry): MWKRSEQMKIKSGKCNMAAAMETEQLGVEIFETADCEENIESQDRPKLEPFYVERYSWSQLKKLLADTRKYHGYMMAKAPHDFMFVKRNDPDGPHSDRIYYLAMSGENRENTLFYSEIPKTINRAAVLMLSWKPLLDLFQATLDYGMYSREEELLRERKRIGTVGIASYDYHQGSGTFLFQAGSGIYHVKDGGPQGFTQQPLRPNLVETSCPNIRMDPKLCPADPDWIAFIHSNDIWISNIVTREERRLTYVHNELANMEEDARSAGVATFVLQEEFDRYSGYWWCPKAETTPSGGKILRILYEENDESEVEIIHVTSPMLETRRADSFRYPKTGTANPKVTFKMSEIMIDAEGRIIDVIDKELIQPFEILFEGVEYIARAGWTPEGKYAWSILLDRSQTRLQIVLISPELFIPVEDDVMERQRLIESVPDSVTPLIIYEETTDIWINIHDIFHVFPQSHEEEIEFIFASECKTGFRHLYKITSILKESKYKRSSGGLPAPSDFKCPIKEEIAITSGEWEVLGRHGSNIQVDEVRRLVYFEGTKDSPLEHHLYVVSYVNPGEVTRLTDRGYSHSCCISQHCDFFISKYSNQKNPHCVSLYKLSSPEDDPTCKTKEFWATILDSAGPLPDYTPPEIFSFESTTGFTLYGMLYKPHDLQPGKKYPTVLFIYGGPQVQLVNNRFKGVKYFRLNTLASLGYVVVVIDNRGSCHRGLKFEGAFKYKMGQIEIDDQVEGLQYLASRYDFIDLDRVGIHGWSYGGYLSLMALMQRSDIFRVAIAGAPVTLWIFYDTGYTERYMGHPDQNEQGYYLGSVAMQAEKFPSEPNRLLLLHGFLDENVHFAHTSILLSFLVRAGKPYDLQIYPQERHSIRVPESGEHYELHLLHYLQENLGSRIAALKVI
Method: as §1, §2
b. DPP-VIII enzyme bought from Bioscience, Catalog no. 80080;
as §3, §4, §5

[3] = intragastric 3.0 mg/kg, phosphate

N[C@@H](CC(=O)N1CCn2c(C(F)(F)F)nc(C(=O)O)c2C1)Cc1cc(F)c(F)cc1F [Example 2, (R)-7-[3-Amino-4-(2,4,5-trifluorophenyl)butanoyl]-3-trifluoromethyl-5,6,7,8-tetrahydro-imidazo[1,5-a]pyrazine-1-carboxylic acid phosphate]
Solubility Value, 0.1% HCl ([1]; 0.1% hydrochloric acid, phosphate): 32.5 mg/mL | Solubility Value, PBS (pH 7.4) ([1]; PBS pH 7.4, phosphate): 20.2 mg/mL | Solubility Value, methanol ([1]; methanol, phosphate): 37.5 mg/mL | Solubility Value, water ([1]; water, phosphate): 26.1 mg/mL | IC50 (DPP-IX): 185 µM | pharmacokinetics and bioavailability (conclusion in words) ([2]; compared with other compounds): improved obviously | F ([2]; phosphate): 8.63% | AUC(0-t) [2, 3]: 198.1 ± 57.4 ng·h/mL | CL/F [2, 3]: 270 ± 75.8 mL/min/kg | Cmax [2, 3]: 66.6 ± 36.4 ng/mL | MRT [2, 3]: 4.05 ± 3.66 h | Tmax [2, 3]: 0.92 ± 0.58 h | t1/2 [2, 3]: 1.69 ± 1.24 h | IC50 (DPP-IV): 0.015 µM | Hypoglycemic rate of blood sugar of 30 minutes after administration (normal ICR mice; phosphate): 29.96% | IC50 (DPP-VIII): 400 µM

N[C@@H](CC(=O)N1CCn2c(C(F)(F)F)nc(C(=O)O)c2C1)Cc1cc(F)c(F)cc1F [Example 3, (R)-7-[3-Amino-4-(2,4,5-trifluorophenyl)butanoyl]-3-trifluoromethyl-5,6,7,8-tetrahydro-imidazo[1,5-a]pyrazine-1-carboxylic acid]
Solubility Value, 0.1% HCl ([1]; 0.1% hydrochloric acid): 20.5 mg/mL (≈ 45.5 mM) | Solubility Value, PBS (pH 7.4) ([1]; PBS pH 7.4): 7.0 mg/mL | Solubility Value, methanol ([1]; methanol): 32.7 mg/mL (≈ 72.6 mM) | Solubility Value, water ([1]; water): 9.2 mg/mL (≈ 20.4 mM) | IC50 (DPP-IX): 125 µM | half-life ([2]; both sexes, SD, rat, plasma, iv, 3 mg/kg, tail vein injection 3.0 mg/kg): 2.35 ± 1.9 h | AUC(0-t) ([2]; both sexes, SD, rat, plasma, iv, 3 mg/kg, tail vein injection 3.0 mg/kg, read-out: AUC0-t): 2300 ± 353 ng·h/mL | MRT ([2]; both sexes, SD, rat, plasma, iv, 3 mg/kg, tail vein injection 3.0 mg/kg, read-out: MRT): 0.22 ± 0.06 h | AUC(0-t) ([2]; intragastric 3.0 mg/kg): 58.3 ± 17.3 ng·h/mL | CL/F ([2]; intragastric 3.0 mg/kg): 862 ± 267 mL/min/kg | Cmax ([2]; intragastric 3.0 mg/kg): 13.4 ± 5.6 ng/mL | MRT ([2]; intragastric 3.0 mg/kg): 4.45 ± 1.01 h | Tmax ([2]; intragastric 3.0 mg/kg): 1.00 ± 0.00 h | t1/2 ([2]; intragastric 3.0 mg/kg): 2.73 ± 0.73 h | F [2]: 2.54% | CL/F ([2]; tail vein injection 3.0 mg/kg): 22.2 ± 3.33 mL/min/kg | IC50 (DPP-IV): 0.013 µM | Hypoglycemic rate of blood sugar of 30 minutes after administration (normal ICR mice): 25.60% | IC50 (DPP-VIII): 236 µM

N[C@@H](CC(=O)N1CCn2c(C(F)(F)F)nc(C(=O)[O-])c2C1)Cc1cc(F)c(F)cc1F.[Li+] [Example 5, Lithium (R)-7-[3-amino-4-(2,4,5-trifluorophenyl)butanoyl]-3-trifluoromethyl-5,6,7,8-tetrahydro-imidazo[1,5-a]pyrazine-1-carboxylate]
solubility ([1]; 0.1% hydrochloric acid, simulated gastric fluid, 0.1% hydrochloric acid, read-out: Solubility Value, 0.1% HCl): 101 mg/mL | solubility ([1]; methanol, organic solvent or mixture, methanol, read-out: Solubility Value, methanol): 50.3 mg/mL | solubility ([1]; phosphate buffer solution (PBS), pH 7.4, aqueous buffer, PBS pH 7.4, read-out: Solubility Value, PBS (pH 7.4)): 60.5 mg/mL | solubility ([1]; water, read-out: Solubility Value, water): 40.2 mg/mL | IC50 (DPP-IX): 50.6 µM | IC50 (DPP-IV): 0.025 µM | IC50 (DPP-VIII): 80.5 µM

N[C@@H](CC(=O)N1CCn2c(C(F)(F)F)nc(C(=O)O)c2C1)Cc1cc(F)c(F)cc1F [Example 8, Triethylammonium (R)-7-[3-amino-4-(2,4,5-trifluorophenyl)butanoyl]-3-(trifluoromethyl)-5,6,7,8-tetrahydro-imidazo[1,5-a]pyrazine-1-carboxylate]
Solubility Value, 0.1% HCl ([1]; 0.1% hydrochloric acid): 8.3 mg/mL | Solubility Value, PBS (pH 7.4) ([1]; PBS pH 7.4): 0.2 mg/mL | Solubility Value, methanol ([1]; methanol): 20.1 mg/mL | Solubility Value, water ([1]; water): 0.5 mg/mL | IC50 (DPP-IX): 136 µM | Hypoglycemic rate of blood sugar of 30 minutes after administration (normal ICR mice): 19.82% | IC50 (DPP-VIII): 152 µM

N[C@@H](CC(=O)N1CCn2c(C(F)(F)F)nc(C(=O)O)c2C1)Cc1cc(F)c(F)cc1F [Example 10, 2-Hydroxyethyl(trimethyl)ammonium (R)-7-[3-Amino-4-(2,4,5-trifluorophenyl)-butanoyl]-3-trifluoromethyl-5,6,7,8-tetrahydro-imidazo[1,5-a]pyrazine-1-carboxylate]
Solubility Value, 0.1% HCl ([1]; 0.1% hydrochloric acid): 15.2 mg/mL | Solubility Value, PBS (pH 7.4) ([1]; PBS pH 7.4): 1.2 mg/mL | Solubility Value, methanol ([1]; methanol): 40.3 mg/mL | Solubility Value, water ([1]; water): 1.5 mg/mL | IC50 (DPP-IX): 166 µM | IC50 (DPP-IV): 0.023 µM | Hypoglycemic rate of blood sugar of 30 minutes after administration (normal ICR mice): 20.92% | IC50 (DPP-VIII): 210 µM
